According to ChEMBL document CHEMBL5728279, “Toll-like receptor 7 (TLR7) agonists having a pyridine or pyrazine moiety, conjugates thereof, and methods and uses therefor” (2021):

Target: T1, Toll-like receptor 7 (Homo sapiens, UniProt Q9NYK1)
T1 sequence (Q9NYK1 whole entry): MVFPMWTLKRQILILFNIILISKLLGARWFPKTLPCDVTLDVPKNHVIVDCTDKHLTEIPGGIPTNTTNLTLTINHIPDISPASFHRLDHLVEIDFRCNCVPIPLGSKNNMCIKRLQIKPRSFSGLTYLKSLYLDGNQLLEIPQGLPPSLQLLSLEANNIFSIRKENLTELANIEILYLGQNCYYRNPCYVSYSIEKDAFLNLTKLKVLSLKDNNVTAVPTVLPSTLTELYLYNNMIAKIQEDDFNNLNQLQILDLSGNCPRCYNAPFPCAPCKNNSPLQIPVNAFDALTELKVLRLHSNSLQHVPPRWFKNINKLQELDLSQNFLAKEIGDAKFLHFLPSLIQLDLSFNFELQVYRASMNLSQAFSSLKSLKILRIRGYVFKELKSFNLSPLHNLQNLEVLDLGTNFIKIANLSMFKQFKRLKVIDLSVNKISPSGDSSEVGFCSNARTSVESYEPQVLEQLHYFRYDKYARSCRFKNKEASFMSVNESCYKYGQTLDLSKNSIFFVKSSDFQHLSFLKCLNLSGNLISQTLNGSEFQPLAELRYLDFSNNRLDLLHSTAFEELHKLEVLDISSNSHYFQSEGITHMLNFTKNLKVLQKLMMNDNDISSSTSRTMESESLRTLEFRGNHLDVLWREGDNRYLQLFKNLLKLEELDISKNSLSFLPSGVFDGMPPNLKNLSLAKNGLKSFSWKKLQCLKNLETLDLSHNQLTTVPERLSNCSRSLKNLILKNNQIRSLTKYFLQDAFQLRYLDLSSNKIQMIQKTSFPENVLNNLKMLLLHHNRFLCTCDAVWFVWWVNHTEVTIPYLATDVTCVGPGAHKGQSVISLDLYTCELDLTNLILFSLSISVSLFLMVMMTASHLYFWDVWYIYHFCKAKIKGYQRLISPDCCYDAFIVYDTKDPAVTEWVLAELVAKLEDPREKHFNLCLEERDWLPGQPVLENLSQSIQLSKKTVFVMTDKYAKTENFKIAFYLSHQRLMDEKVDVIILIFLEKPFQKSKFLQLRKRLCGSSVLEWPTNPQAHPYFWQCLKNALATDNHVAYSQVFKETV
Experiment: HEK-Blue™ TLR7 cells were added to each well of a 384-well tissue-culture plate (15,000 cells per well) and incubated 16-18 h at 37° C., 5% CO2. Compounds (100 nl) were dispensed into wells containing the HEK-Blue™ TLR cells and the treated cells were incubated at 37° C., 5% CO2. After 18 h treatment ten microliters of freshly-prepared Quanti-Blue™ reagent (Invivogen) was added to each well, incubated for 30 min (37° C., 5% CO2) and SEAP levels measured using an Envision plate reader (OD=620 nm).

SMILES | EC50
CCCCOc1nc(N)c2nc(O)n(Cc3ccc(CNCc4ccccc4)nc3)c2n1 | 110 nM
CCCCOc1nc(N)c2nc(O)n(Cc3ccc(CNC4CCCC4)nc3)c2n1 | 2.9 nM
CCCCOc1nc(N)c2nc(O)n(Cc3ccc(CNCc4ccccc4)cn3)c2n1 | 22 nM
CCCCOc1nc(N)c2nc(O)n(Cc3ccc(CN4CCC(N)CC4)nc3)c2n1 | 3.1 nM
CCCCCCNCc1ccc(Cn2c(O)nc3c(N)nc(OCCCC)nc32)cn1 | 11 nM
CCCCOc1nc(N)c2nc(O)n(Cc3ccc(CN4CCC(CN)CC4)nc3)c2n1 | 4.9 nM
